Source: patent publication US20240336564A1, “COMPOUND, RUBBER MIXTURE CONTAINING THE COMPOUND, VEHICLE TIRE WHICH HAS AT LEAST ONE COMPONENT COMPRISING THE RUBBER MIXTURE, PROCESS FOR PREPARING THE COMPOUND, AND USE OF THE COMPOUND AS AN AGING PROTECTION AGENT AND/OR ANTIOZONANT AND/OR COLORANT” (CONTINENTAL REIFEN DEUTSCHLAND GMBH, priority 2021, published 2024)

Experiment: Measurement of oxidation induction time (OIT) by DSC
Conditions: with liquid polyisoprene LIR-50, isothermal 180° C., O2 atmosphere 50 mL/min, DSC peak; measurement accuracy ±10 min
Method: The compound of formula III) was investigated under laboratory conditions for their potential protective effect as aging stabilizers by measurement of the oxidation induction time.
To this end the compounds of formula III) and 6-PPD in each case together with a polymer (liquid synthetic polyisoprene (IR), LIR-50, Kuraray, weight average molecular weight distribution MW=54 000 g/mol, glass transition temperature Tg=−63° C.) were heated at constant temperature (180° C.) until onset of oxidation (start temperature 35° C., heating to 170° C. at a heating rate of 20 K/min (kelvin per minute), heating to 180° C. at a heating rate of 1 K/min; purge gas: nitrogen (N2), volume flow 50 mL/min). The specimen was isothermally maintained for 5 minutes at 180° C. under an N2 atmosphere and the atmosphere was then switched to an O2 atmosphere (volume flow 50 mL/min).
Oxidation was determined via a peak using DSC (differential scanning calorimetry).
The time in minutes to oxidation was measured.

Question: With `CC(C)CC(C)Nc1ccc(-c2cc3ccccc3[nH]2)cc1` (centres unmarked) as the compound, how does the “Oxidation induction time (time to oxidation)” value read?
Answer: 121 ± 10 min

Question: For `CC(C)CC(C)Nc1ccc(Nc2ccccc2)cc1` (centres unmarked) [Compound 6-PPD, N-(1,3-dimethylbutyl)-N′-phenyl-p-phenylenediamine], which “Oxidation induction time (time to oxidation)” value is on record?
Answer: 116 ± 10 min
